From patent US20030054990A1, “Methods of using neural thread proteins to treat tumors and other conditions requiring the removal or destruction of cells” (Nymox Pharmaceutical Corporation, priority 2001, published 2003)
Values joined by “and” are separate entries in the source; they are usually repeats but may differ in a detail not shown here. Equal values may be shown once.

How the values were obtained:
Type in all cases: cell-based
[1] = MTT assay, cytotoxicity in neuroblastoma cells; conditions: neuroblastoma cells (ATCC), per cent of negative control, Tamoxifen 100 μM, AD7C-NTP 100-1000 ng/ml, read-out: Percent Of Viable Cells
Description: (§1) Cryopreserved glioma and neuroblastoma cells were acquired from the American Type Culture Collection (ATCC), Virginia. Cells were thawed and diluted in suspension media and centrifuged at 700 rpm for 7 minutes at 4° C. Cell pellets were then resuspended in CACO-2 media and cultured in standard 75 or 175 cm^2 flasks at 37° C., 5% CO2 until approximately confluent. The cells were then trypsinized and resuspended in CACO-2 media to achieve a final cell density of 1.5×10^5 cells/ml. 50 μl aliquots per sample were then added per well to 96 well plates.
(§2) For Experiment I, 50 μl of either PBS (phosphate buffered solution) (negative control), 100 μM tamoxifen in phosphate buffered saline PBS (positive control), or test article were added to each sample culture.
(§3) For Experiment II, 1 mM tamoxifen in DMSO (dimethylsulfoxide) was diluted to 100 μM concentration in CACO-2 media, and 100 μl per well was added to positive control wells. A vehicle control consisting of 1% DMSO in CACO-2 media was also added to this experiment. Other negative controls consisted of human and bovine serum albumin and other nontoxic polypeptides.
(§4) An MTT assay is a sensitive assay for the measurement of cell proliferation based upon the reduction of the tetrazolium salt 3,[4,5-dimethylthiazol-2-yl]-2,5-diphenyltetrazolium bromide (MTT).
(§5) Following incubations with control or test substances, media was aspirated and 100 μl MTT was added to each well. Plates were then incubated for 3 hours at 37° C., 5% CO2. MTT was then replaced with acidified isopropanol (0.4 N HCI) and the plates were stored overnight at 4° C., covered. Plates were then agitated gently for 1 minute on a rotary shaker and the difference between emission absorbance of 570 nm and background absorbance of 650 nm was measured spectrophotometrically on an automated plate reader.
(§6) Neuroblastoma and glioma cells were incubated for 24 hours following treatment with test materials or control solutions. MTT was added to all cultures at this time. Results are expressed as means absorbance differences and represented as per cent of negative control and are shown in Table 1 (cytotoxicity in glioma cells) and Table 2 (cytotoxicity in neuroblastoma cells).
(§7) Glioma cells and neuroblastma cells were used for this experiment. MTT was added to the plates following a 24 hour incubation with control or test solutions. Other plates were replenished with fresh media, control, or test solution at 24 hours and then read 3 days later. Results are expressed as mean absorbance differences and as per cent of negative control and are shown in Table 3 (glioma cells) and Table 4 (neuroblastoma cells).

[2] = tested on: neuroblastoma cells; test: MTT assay, cytotoxicity in neuroblastoma cells; conditions: Tamoxifen 100 μM, AD7C-NTP 100-1000 ng/ml; for Sample (absorbance difference): single replicate
Description: as §1, §2, §3, §4, §5, §6, §7

[3] = tested on: glioma cells; test: MTT assay, cytotoxicity in glioma cells; conditions: Tamoxifen 100 μM, AD7C-NTP 100-1000 ng/ml; for ABS 570-650 Sample: single replicate
Description: as §1, §2, §3, §4, §5, §6, §7

[4] = MTT assay, cytotoxicity in glioma cells; conditions: glioma cells (ATCC), per cent of negative control, Tamoxifen 100 μM, AD7C-NTP 100-1000 ng/ml, read-out: Percent Of Viable Cells
Description: as §1, §2, §3, §4, §5, §6, §7

CC/C(=C(\c1ccccc1)c1ccc(OCCN(C)C)cc1)c1ccccc1 [PC (Tamoxifen), tamoxifen]
viability at 24 h, 100 µM ([1]; 24 hour incubation): 14% | viability at 4 days, 100 µM ([1]; 4 day incubation): 25% | Mean (absorbance difference) ([2]; 24 hour incubation): 0.010 | Sample (absorbance difference) ([2]; 24 hour incubation): 0.010 and 0.009 | Mean (absorbance difference) ([2]; 4 day incubation): 0.019 | Sample (absorbance difference) ([2]; 4 day incubation): 0.016 | ABS 570-650 Mean ([3]; 24 hrs): 0.015 | ABS 570-650 Sample ([3]; 24 hrs): 0.017 and 0.012 | ABS 570-650 Mean ([3]; 4 days): 0.015 | ABS 570-650 Sample ([3]; 4 days): 0.018 and 0.012 | viability at 24 h, 100 µM ([4]; 24 hrs): 28% | viability at 4 days, 100 µM ([4]; 4 days): 19%
